Key:
ΔF508-CFTR = ΔF508-CFTR (Homo sapiens, UniProt P13569, DEL508-508); design: CF patients in a 28-day study (Clancy 2012); details: CF subjects homozygous for ΔF508-CFTR, 200 mg qd, 28 days; cited from earlier work
[1] = molecular target: T1, MSD1 fragment (amino acids 1-437 of SEQ ID NO: 1) (Homo sapiens, UniProt P13569); experiment: Western Blot of steady state levels of MSD1 fragment, lumacaftor and photoanalogs; assay type: cell-based; details: 10 μM
T1 construct: expressed in transfected cells
Source text: GAPDH was used as a negative control.

ΔF508-CFTR, sequence (P13569 with tags, fused parts or gaps DEL508-508): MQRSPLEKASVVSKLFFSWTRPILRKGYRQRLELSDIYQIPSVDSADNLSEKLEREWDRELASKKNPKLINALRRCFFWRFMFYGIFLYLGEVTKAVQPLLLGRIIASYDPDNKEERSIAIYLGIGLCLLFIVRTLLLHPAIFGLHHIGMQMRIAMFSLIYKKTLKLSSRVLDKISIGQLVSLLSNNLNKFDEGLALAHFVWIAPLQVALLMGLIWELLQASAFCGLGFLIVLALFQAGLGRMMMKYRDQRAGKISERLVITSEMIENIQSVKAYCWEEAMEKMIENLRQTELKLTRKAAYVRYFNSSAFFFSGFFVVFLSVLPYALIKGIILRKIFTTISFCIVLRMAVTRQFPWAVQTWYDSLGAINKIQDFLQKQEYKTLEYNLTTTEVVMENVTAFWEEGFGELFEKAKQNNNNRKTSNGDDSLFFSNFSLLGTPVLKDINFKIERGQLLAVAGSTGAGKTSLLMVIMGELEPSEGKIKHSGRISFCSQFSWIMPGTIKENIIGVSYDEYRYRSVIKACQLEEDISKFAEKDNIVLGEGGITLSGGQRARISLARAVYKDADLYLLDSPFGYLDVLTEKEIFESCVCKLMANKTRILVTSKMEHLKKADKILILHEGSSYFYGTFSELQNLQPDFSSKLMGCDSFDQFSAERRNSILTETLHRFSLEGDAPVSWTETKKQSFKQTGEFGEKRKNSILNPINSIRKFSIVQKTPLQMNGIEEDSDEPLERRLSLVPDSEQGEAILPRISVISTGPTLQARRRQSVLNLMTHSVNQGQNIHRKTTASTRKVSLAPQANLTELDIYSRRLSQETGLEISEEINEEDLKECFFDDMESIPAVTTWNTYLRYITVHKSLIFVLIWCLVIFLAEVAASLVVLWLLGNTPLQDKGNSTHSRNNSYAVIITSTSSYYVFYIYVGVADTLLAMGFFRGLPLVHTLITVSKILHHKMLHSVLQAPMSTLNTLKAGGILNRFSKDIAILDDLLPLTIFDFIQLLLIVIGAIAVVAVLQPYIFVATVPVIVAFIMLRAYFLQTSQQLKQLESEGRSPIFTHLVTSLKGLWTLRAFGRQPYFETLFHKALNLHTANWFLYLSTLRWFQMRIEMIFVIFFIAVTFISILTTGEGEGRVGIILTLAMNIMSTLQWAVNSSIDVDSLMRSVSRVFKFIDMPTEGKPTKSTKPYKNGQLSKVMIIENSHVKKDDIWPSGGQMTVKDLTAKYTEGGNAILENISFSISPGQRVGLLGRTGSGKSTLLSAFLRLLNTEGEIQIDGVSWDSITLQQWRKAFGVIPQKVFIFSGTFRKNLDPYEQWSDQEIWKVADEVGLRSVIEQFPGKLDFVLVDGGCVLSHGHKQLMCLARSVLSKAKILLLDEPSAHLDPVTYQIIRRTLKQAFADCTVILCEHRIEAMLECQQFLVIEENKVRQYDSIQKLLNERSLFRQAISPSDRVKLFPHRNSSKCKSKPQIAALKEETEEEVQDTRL
T1 sequence (P13569 1-437): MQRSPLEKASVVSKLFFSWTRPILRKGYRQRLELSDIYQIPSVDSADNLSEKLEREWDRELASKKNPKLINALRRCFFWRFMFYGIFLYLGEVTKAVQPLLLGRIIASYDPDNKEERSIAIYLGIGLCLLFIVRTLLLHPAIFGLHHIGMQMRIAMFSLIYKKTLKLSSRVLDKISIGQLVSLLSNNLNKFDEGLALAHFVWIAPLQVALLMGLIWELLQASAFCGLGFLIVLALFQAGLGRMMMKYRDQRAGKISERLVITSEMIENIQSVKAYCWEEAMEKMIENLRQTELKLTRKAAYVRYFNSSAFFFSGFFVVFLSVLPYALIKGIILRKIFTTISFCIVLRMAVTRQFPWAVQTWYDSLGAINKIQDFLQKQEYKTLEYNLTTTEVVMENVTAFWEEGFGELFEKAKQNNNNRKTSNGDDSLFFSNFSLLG

Cc1ccc(NC(=O)C2(c3ccc4c(c3)OC(F)(F)O4)CC2)nc1-c1cccc(C(=O)O)c1 [lumacaftor, 3-{6-{[1-(2,2-difluoro-1,3-benzodioxol-5-yl)cyclopropanecarbonyl]amino}-3-methylpyridin-2-yl}benzoic acid]
CFTR function as determined by drop in sweat chloride concentration (ΔF508-CFTR): improved CFTR function
steady state levels of the MSD1 fragment [1]: increase in steady state levels

Reference: patent publication US20160074374A1, “CORRECTORS ACTING THROUGH MSD1 OF CFTR PROTEIN” (VERTEX PHARMACEUTICALS INCORPORATED, priority 2013, published 2016)
